This passage reports IC50 results from patent publication US5891917A, “Certain acrylonitrile-sulfonamide derivatives” (Sugen, Inc., priority 1997, dated 1999).

In experiment [1] the test system is chimeric receptor containing the EGFR extracellular domain and the HER2 intracellular kinase domain. In words: EGFR-HER2 chimeric receptor whole cell kinase ELISA (3T3). Type of experiment: cell-based. The note with it: NIH3T3 cells with EGFR/HER2 chimera, 100 nM EGF. An excerpt:
(§1) The following examples illustrate the ability of the exemplary compounds to inhibit receptor tyrosine kinases, such as HER2 and/or EGFR. The following target cells were used for cellular kinase assays: NIH3T3 clone C7 (Honegger et al., supra) engineered to over-express human EGF receptor; NIH3T3 cells engineered to over-express a chimeric receptor containing the EGFR extracellular domain and the HER2 intracellular kinase domain; the human mammary carcinoma line BT474 (ATCC HTB2) expressing HER2; and the human glioblastoma line U1242 that expresses PDGFR-beta. Growth assays were carried out using human mammary epithelial SKBR3 (ATCC HTB30) cells (SKBR3 cells over-express HER2), SKOV3 (ATCC HTB77) human ovarian cancer cell line (SKOV3 cells also over-express HER2), A431 cells (A431 cells over-express EGFR) MCF7 human breast carcinoma cells, MCF7 cells overexpressing the HER2 kinase (MCF7-HER2), NIH3T3 cells, and NIH3T3 cells overexpressing the HER2 kinase (3T3-HER2.
EGFR-HER2 Chimeric Recetor
HER2 kinase activity (EGFR-3T3) in whole cells was measured as described below:
The materials and regeants are identical to these used in example 1, the EGFR whole cell kinase assay.
A. Coat ELISA plates (Corning, 96 well, Cat. #25805-96) with 05-101 antibody at 0.5 μg per well in PBS, 100 μl final volume/well, and store overnight at 4° C. Coated plates are good for up to 10 days when stored at 4° C.
B. On day of use, remove coating buffer and replace with 100 μl blocking buffer (5% Carnation Instant Non-Fat Dry Milk in PBS). Incubate the plate, shaking, at room temperature (about 23° C. to 25° C.) for 30 minutes. Just prior to use, remove blocking buffer and wash plate 4 times with TBST buffer.
A. An NIH3T3 cell line overexpressing a chimeric receptor containing the EGFR extracellular domain and extracellular HER2 kinase domain can be used for this assay.
B. Choose dishes having 80-90% confluence for the experiment. Trypsinize cells and stop reaction by adding 10% fetal bovine serum. Suspend cells in DMEM medium (10% CS DMEM medium) and centrifuge once at 1500 rpm, at room temperature for 5 minutes.
C. Resuspend cells in seeding medium (DMEM, 0.5% bovine serum), and count the cells using trypan blue. Viability above 90% is acceptable. Seed cells in DMEM medium (0.5% bovine serum) at a density of 10,000 cells per well, 100 μl per well, in a 96 well microtiter plate. Incubate seeded cells in 5% CO2 at 37° C. for about 40 hours.
A. Check seeded cells for contamination using an inverted microscope. Dilute drug stock (10 mg/ml in DMSO) 1:10 in DMEM medium, then transfer 5 l to a […] well for a final drug dilution of 1:200 and a final DMSO concentration of 1%. Control wells receive DMSO alone. Incubate in 5% CO2 at 37° C. for two hours.
B. Prepare EGF ligand: dilute stock EGF in DMEM so that upon transfer of 10 μl dilute EGF (1:12 dilution), 100 nM final concentration is attained.
D. After 120 minutes incubation with drug, add prepared […] ligand to cells, 10 μl per well, to a final concentration of 100 nM. Control wells receive DMEM alone. Incubate, shaking, at room temperature, for 5 minutes.
E. Remove drug, EGF, and DMEM. Wash cells twice with PBS. Transfer HNTG* to cells, 100 μl per well. Place on ice for 5 minutes. Meanwhile, remove blocking buffer from other ELISA plate and wash with TBST as described above.
F. With a pipette tip securely fitted to a micropipettor, scrape cells from plate and homogenize cell material by repeatedly aspirating and dispensing the HNTG* lysis buffer. Transfer lysate to a coated, blocked, and washed ELISA plate. Incubate shaking at room temperature for one hour.
G. Remove lysate and wash 4 times with TBST. Transfer freshly diluted anti-Ptyr antibody to ELISA plate at 100 μl per well. Incubate shaking at room temperature for 30 minutes in the presence of the anti-Ptyr antiserum (1:3000 dilution in TBST).
H. Remove the anti-Ptyr antibody and wash 4 times with TBST. […]
(An ELISA detects its analyte on a solid surface through an enzyme-linked reagent.)

The test system of a further experiment is MCF7 cells. In words: MCF-7 SRB Growth Assay. Particulars: Homo sapiens, read-out: Growth Data: MCF7 10% FBS. The format is cell-based.
Description: as §1
MCF-7 cells are seeded at 2000 cells/well in a 96-well flat bottom plate in normal growth media, which was 10% FBS/RPMI supplemented with 2 mM Glutamine. The plate of cells is incubated for about 24 hours at […] after which it receives an equal volume of compound dilution per well making the total volume per well 200 μl. The compound is prepared at 2 times the desired highest final concentration and serially diluted in the normal growth media in a 96-well round bottom plate and then transferred to plate of cells. DMSO serves as the vector control up to 0.2% as final concentration. The cells are then incubated at 37° C. in a humidified 5% CO2 incubator.
Four days following dosing of compound, the media is 15 discarded and 200 μ/well of ice-cold 10% TCA (Trichloroacetic Acid) is added to fix cells. After 60 minutes at 4° C., the TCA is discarded and the plate is rinsed 5 times with water. The plate is then air-dried and 100 μl/well of 0.4% SRB (Sulforhodamine B from Sigma) 20 in 1% Acetic Acid is added to stain cells for 10 minutes at room temperature. The SRB is discarded and the plate is rinsed 5 times with 1% Acetic Acid. After the plate is completely dried, 100 μl/well of 10 mM Tris-base is added to solubilize the dye. After 5 to 10 minutes, the plate is read on a Dynatech ELISA Plate Reader at dual wavelengths at 570 nm and 630 nm.

In the case of `CC(C)c1cc(/C=C(\C#N)S(=O)(=O)NCc2ccccc2)cc(C(C)C)c1O` [Compound 732], the IC50 stood at 20.9 µM in experiment [1] and 13 µM in the experiment on MCF7 cells.

On to `CC(C)(C)c1cc(/C=C(\C#N)S(=O)(=O)c2ccc(F)cc2)cc(C(C)(C)C)c1O` [Compound 740], for which the IC50 is above 100 µM in experiment [1] and 0.2 µM in the experiment on MCF7 cells.

Take `CC(C)c1cc(/C=C(\C#N)S(=O)(=O)c2ccc(F)cc2)cc(C(C)C)c1O` [Compound 741, (E)-3-(3,5-Diisopropyl-4-hydroxyphenyl)-2-(4-fluorophenylsulfonyl)acrylonitrile]: the IC50 in experiment [1] came out at 13.9 µM; with MCF7 cells it was 8 µM.

For `N#C/C(=C\c1ccc(O)cc1Cl)S(=O)(=O)NCc1ccccc1` [Compound 733], the IC50 in experiment [1] came out at 83.5 µM; with MCF7 cells, 65 µM.

As to `CC(C)(C)c1cc(/C=C(\C#N)S(=O)(=O)c2cccs2)cc(C(C)(C)C)c1O` [Compound 742], the figures for the IC50 (in experiment [1]; in the experiment with MCF7 cells) were 27.8 µM and 2 µM, respectively.

As to `Cc1cc(/C=C(\C#N)S(=O)(=O)Cc2cccc(C(F)(F)F)c2)cc(C)c1O` [Compound 739], the IC50 in experiment [1] is above 100 µM; in the experiment on MCF7 cells, 35 µM.

With `Cc1cc(/C=C(\C#N)S(=O)(=O)c2ccccc2)cc(C)c1O` [Compound 748], in the experiment with MCF7 cells, the IC50 is above 100 µM.

Consider `Cc1cc(/C=C(\C#N)S(=O)(=O)c2ccc(F)cc2)cc(C)c1O` [Compound 744], for which the IC50 with MCF7 cells was above 100 µM.

Consider `N#C/C(=C\c1ccc(O)cc1Cl)S(=O)(=O)NCCCc1ccccc1` [Compound 734], for which the IC50 came to 21.7 µM in experiment [1] and 56 µM in the experiment with MCF7 cells.

As for `CC(C)c1cc(/C=C(\C#N)S(=O)(=O)c2ccccc2)cc(C(C)C)c1O` [Compound 731], the results for the IC50 (in experiment [1]; in the experiment on MCF7 cells) were 17.2 µM and 12 µM, respectively.

Regarding `CC(C)(C)c1cc(/C=C(\C#N)S(=O)(=O)c2ccsc2)cc(C(C)(C)C)c1O` [Compound 746], the IC50 in experiment [1] is 8.1 µM; in the experiment with MCF7 cells, 2 µM.

With `CC(C)c1cc(/C=C(\C#N)S(=O)(=O)c2ccsc2)cc(C(C)C)c1O` [Compound 738], the values for the IC50 (in experiment [1]; with MCF7 cells) were 36.4 µM and 17 µM, respectively.

For the compound `CC(C)c1cc(/C=C(\C#N)S(=O)(=O)Cc2cccc(C(F)(F)F)c2)cc(C(C)C)c1O` [Compound 736], the IC50 in experiment [1] was found to be 22.7 µM; in the experiment with MCF7 cells it was 8 µM.

Regarding `CC(C)c1cc(/C=C(\C#N)S(=O)(=O)c2cccs2)cc(C(C)C)c1O` [Compound 737], the IC50 in experiment [1] came to 32 µM; in the experiment on MCF7 cells it was 16 µM.

With `CC(C)c1cc(/C=C(\C#N)S(=O)(=O)c2ccccn2)cc(C(C)C)c1O` [Compound 747], the IC50 in the experiment with MCF7 cells was found to be 55 µM.

On to `CC(C)(C)c1cc(/C=C(\C#N)S(=O)(=O)Cc2cccc(C(F)(F)F)c2)cc(C(C)(C)C)c1O` [Compound 735], for which the figures for the IC50 (in experiment [1]; with MCF7 cells) were 57.4 µM and 0.7 µM, respectively.
